Each block holds one compound with its values, some of them ahead of it.
Columns and labels:
aldose reductase = target: T1, aldose reductase (Bos taurus, UniProt P16116); experiment: in vitro inhibition of aldose reductase from bovine lens (modified Hayman and Kinoshita procedure); type: biochemical; settings: 10^-7 M
T1 construct: preparation of the enzyme from bovine lens; from tissue; host or cells: bovine lens
Experimental: Only two minor reagent changes were made: (a) The rinsing mixture was an aqueous 5% (w/v) trichloroacetic acid solution and (b) the stock solution was prepared by dissolving 25 mg of dulcitol in 100 mL of an aqueous trichloroacetic acid solution. [N.B.: For each experiment the average value found in the tissue from rats fed the glucose diet was subtracted from the individual values found in the corresponding tissue in galactose-fed rats to obtain the amount of polyol accumulated.] […] In the present case the procedure of Hayman and Kinoshita was modified in that the final chromatography step was omitted in the preparation of the enzyme from bovine lens.

[1] = test system: lenses of rats fed galactose; experiment: galactosemic rats: lowering of galactitol (dulcitol) accumulation in the lens; type: in vivo, rat (Sprague-Dawley); settings: four days, vs untreated galactosemic rats
Text: (§1) The aldose reductase inhibiting property of the compounds of this invention and the utilization of the compounds in preventing, diminishing and alleviating diabetic complications by lowering polyols accumulation are demonstrable in experiments using galactosemic rats, see Dvornik et al, Science, 182, 1146 (1973). Such experiments are exemplified hereinbelow after the listing of the following general comments pertaining to these experiments:
(§2) (a) Four or more groups of six male rats, 50-70 g, Sprague-Dawley strain, were used. The first group, the control group, was fed a mixture of laboratory chow (rodent Laboratory Chow, Purina) and glucose at 20% (w/w %) concentration. The untreated galactosemic group and the drug-treated groups were fed a similar diet in which galactose is substituted for glucose. The test compound was either admixed to the diet or administered by gavage. In experiments involving compound administration in the diet, the average dose administered was calculated from the actual food intake of the animals in each group. The concentration of galactose in the diet of the treated groups was the same as that for the untreated galactosemic group.
(§3) (b) After four days, the animals were killed by decapitation. The eyeballs were removed and punctured with a razor blade; the freed lenses were rolled gently on filter paper and weighed. The sciatic nerves were dissected as completely as possible and weighed. Both tissues when frozen can be kept up to two weeks before being analyzed for galactitol.
(§4) (c) The polyol determination was performed by a modification of the procedure of M. Kraml and L. Cosyns, Clin. Biochem., 2,373 (1969). Only two minor reagent changes were made: (a) The rinsing mixture was an aqueous 5% (w/v) trichloroacetic acid solution and (b) the stock solution was prepared by dissolving 25 mg of dulcitol in 100 mL of an aqueous trichloroacetic acid solution. [N.B.: For each experiment the average value found in the tissue from rats fed the glucose diet was subtracted from the individual values found in the corresponding tissue in galactose-fed rats to obtain the amount of polyol accumulated.] The aldose reductase inhibiting effects of the compounds of formula (I) were also tested by employing an in vitro testing procedure similar to that described by S. Hayman and J. H. Kinoshita, J. Biol. Chem., 240, 877 (1965). In the present case the procedure of Hayman and Kinoshita was modified in that the final chromatography step was omitted in the preparation of the enzyme from bovine lens.
(§5) The figures under L and N represent the percentage decrease of galactitol accumulation in the tissues of the lens and sciatic nerve, respectively, for treated rats as compared to untreated rats.

[2] = test system: sciatic nerves of rats fed galactose; experiment: galactosemic rats: lowering of galactitol (dulcitol) accumulation in the sciatic nerve; type: in vivo, rat (Sprague-Dawley); settings: for % lowering dulcitol accumulation in vivo, N (sciatic nerve): four days, vs untreated galactosemic rats
Text: as §1, §2, §3, §4, §5

- inhibition at 0.1 µM (aldose reductase): 80%
Compound: COc1ccc2c(C(=NC#N)N(C)CC(=O)O)cccc2c1C(F)(F)F [Example 4, N-[(Cyanoimino)[6-methoxy-5-(trifluoromethyl)-1-naphthalenyl]methyl]-N-methylglycine]
- % lowering dulcitol accumulation in vivo, L (lens) ([1]; 26 mg/kg/day p.o.): 0%
- % lowering dulcitol accumulation in vivo, L (lens) ([1]; 100 mg/kg/day p.o.): 0%
- % lowering dulcitol accumulation in vivo, N (sciatic nerve) ([2]; 26 mg/kg/day p.o.): 30%
- % lowering dulcitol accumulation in vivo, N (sciatic nerve) ([2]; 100 mg/kg/day p.o.): 61%
- lowering of polyol accumulation compared with tolrestat (in words) ([2]; 100 mg/kg/day vs tolrestat at 6.4 mg/kg/day): comparable results

- inhibition at 0.1 µM (aldose reductase): 69%
Compound: COc1ccc2c(C(=NS(=O)(=O)C(F)(F)F)N(C)CC(=O)O)cccc2c1C(F)(F)F [Example 5, N-[[6-Methoxy-5-(trifluoromethyl)-1-naphthalenyl][[(trifluoromethyl)sulfonyl]imino]methyl]-N-methylglycine]
- % lowering dulcitol accumulation in vivo, L (lens) ([1]; 56 mg/kg/day p.o.): 0%
- % lowering dulcitol accumulation in vivo, N (sciatic nerve) ([2]; 56 mg/kg/day p.o.): 0%

- inhibition at 0.1 µM (aldose reductase): 5%
Compound: COc1ccc2c(C(=NS(=O)(=O)c3ccc(Br)cc3)N(C)CC(=O)O)cccc2c1C(F)(F)F [Example 6, N-[[[(4-Bromophenyl)sulfonyl]imino][6-methoxy-5-(trifluoromethyl)-1-naphthalenyl]methyl]-N-methylglycine]
- % lowering dulcitol accumulation in vivo, L (lens) ([1]; 55 mg/kg/day p.o.): 0%
- % lowering dulcitol accumulation in vivo, N (sciatic nerve) ([2]; 55 mg/kg/day p.o.): 0%

Compound: COc1ccc2c(C(=S)N(C)CC(=O)O)cccc2c1C(F)(F)F [tolrestat, N-[[6-methoxy-5-(trifluoromethyl)-1-naphthalenyl]thioxomethyl]-N-methylglycine, reference compound]
- % lowering dulcitol accumulation in vivo, L (lens) ([1]; 6.4 mg/kg/day p.o.): 0%
- % lowering dulcitol accumulation in vivo, N (sciatic nerve) ([2]; 6.4 mg/kg/day p.o.): 50%
